Laboratory results: ChEMBL document CHEMBL1139978, “Synthesis and radiopharmacological characterization of [11C]AL-438 as a nonsteroidal ligand for imaging brain glucocorticoid receptors” (Bioorg Med Chem Lett, 2007)

Columns and labels:
[1] = tested on: Adrenal; experiment: Biodistribution in Wistar rat adrenal at 20 MBq, iv after 60 mins; format: ADME, organism-based, Adrenal tissue; details: in vivo, 1 h
[2] = tested on: Kidney; experiment: Biodistribution in Wistar rat kidney at 20 MBq, iv after 5 mins; format: ADME, organism-based; details: in vivo
[3] = tested on: Lung; experiment: Biodistribution in corticosterone pretreated Wistar rat lung at 20 MBq, iv after 5 mins; format: ADME, organism-based; details: in vivo
[4] = tested on: Thymus; experiment: Biodistribution in Wistar rat thymus at 20 MBq, iv after 60 mins; format: ADME, organism-based; details: in vivo, 1 h
[5] = tested on: Thymus; experiment: Biodistribution in corticosterone pretreated Wistar rat thymus at 20 MBq, iv after 60 mins; format: ADME, organism-based; details: in vivo, 1 h
[6] = tested on: Thymus; experiment: Biodistribution in corticosterone pretreated Wistar rat thymus at 20 MBq, iv after 5 mins; format: ADME, organism-based; details: in vivo
[7] = tested on: Kidney; experiment: Biodistribution in corticosterone pretreated Wistar rat kidney at 20 MBq, iv after 5 mins; format: ADME, organism-based; details: in vivo
[8] = tested on: Liver; experiment: Biodistribution in Wistar rat liver at 20 MBq, iv after 60 mins; format: ADME, organism-based; details: in vivo, 1 h
[9] = tested on: Cortex; experiment: Biodistribution in Wistar rat cortex at 20 MBq, iv after 60 mins; format: ADME, organism-based; details: in vivo, 1 h
[10] = tested on: Femur; experiment: Biodistribution in Wistar rat femur at 20 MBq, iv after 60 mins; format: ADME, organism-based; details: in vivo, 1 h
[11] = tested on: Harderian gland; experiment: Biodistribution in corticosterone pretreated Wistar rat harderian gland at 20 MBq, iv after 5 mins; format: ADME, organism-based; details: in vivo
[12] = tested on: Kidney; experiment: Biodistribution in Wistar rat kidney at 20 MBq, iv after 60 mins; format: ADME, organism-based; details: in vivo, 1 h
[13] = tested on: Cortex; experiment: Biodistribution in corticosterone pretreated Wistar rat cortex at 20 MBq, iv after 60 mins; format: ADME, organism-based; details: in vivo, 1 h
[14] = tested on: Hippocampus; experiment: Biodistribution in Wistar rat hippocampus at 20 MBq, iv after 60 mins; format: ADME, organism-based; details: in vivo, 1 h
[15] = tested on: Rattus norvegicus; experiment: Biodistribution in corticosterone pretreated Wistar rat brown fat at 20 MBq, iv after 60 mins; format: ADME, organism-based, Brown adipose tissue; details: in vivo, 1 h
[16] = tested on: Pituitary gland; experiment: Biodistribution in Wistar rat pituitary at 20 MBq, iv after 5 mins; format: ADME, organism-based; details: in vivo
[17] = tested on: Rattus norvegicus; experiment: Biodistribution in corticosterone pretreated Wistar rat fat at 20 MBq, iv after 5 mins; format: ADME, organism-based, Adipose tissue; details: in vivo
[18] = tested on: Spleen; experiment: Biodistribution in corticosterone pretreated Wistar rat spleen at 20 MBq, iv after 5 mins; format: ADME, organism-based; details: in vivo
[19] = tested on: Adrenal; experiment: Biodistribution in corticosterone pretreated Wistar rat adrenal at 20 MBq, iv after 60 mins; format: ADME, organism-based, Adrenal tissue; details: in vivo, 1 h
[20] = tested on: Pancreas; experiment: Biodistribution in corticosterone pretreated Wistar rat pancreas at 20 MBq, iv after60 mins; format: ADME, organism-based; details: in vivo, 1 h
[21] = tested on: Heart; experiment: Biodistribution in Wistar rat heart at 20 MBq, iv after 5 mins; format: ADME, organism-based; details: in vivo
[22] = tested on: Muscle tissue; experiment: Biodistribution in corticosterone pretreated Wistar rat muscle at 20 MBq, iv after 60 mins; format: ADME, organism-based; details: in vivo, 1 h
[23] = tested on: Rattus norvegicus; experiment: Biodistribution in corticosterone pretreated Wistar rat testis at 20 MBq, iv after 5 mins; format: ADME, organism-based; details: in vivo
[24] = tested on: Muscle tissue; experiment: Biodistribution in Wistar rat muscle at 20 MBq, iv after 5 mins; format: ADME, organism-based; details: in vivo
[25] = tested on: Heart; experiment: Biodistribution in Wistar rat heart at 20 MBq, iv after 60 mins; format: ADME, organism-based; details: in vivo, 1 h
[26] = tested on: Lung; experiment: Biodistribution in Wistar rat lung at 20 MBq, iv after 60 mins; format: ADME, organism-based; details: in vivo, 1 h
[27] = tested on: Thymus; experiment: Biodistribution in Wistar rat thymus at 20 MBq, iv after 5 mins; format: ADME, organism-based; details: in vivo
[28] = tested on: Pituitary gland; experiment: Biodistribution in Wistar rat pituitary at 20 MBq, iv after 60 mins; format: ADME, organism-based; details: in vivo, 1 h
[29] = tested on: Rattus norvegicus; experiment: Biodistribution in corticosterone pretreated Wistar rat rest of brain at 20 MBq, iv after 60 mins; format: ADME, organism-based; details: in vivo, 1 h
[30] = tested on: Cerebellum; experiment: Biodistribution in Wistar rat cerebellum at 20 MBq, iv after 60 mins; format: ADME, organism-based; details: in vivo, 1 h
[31] = tested on: Adrenal; experiment: Biodistribution in Wistar rat adrenal at 20 MBq, iv after 5 mins; format: ADME, organism-based, Adrenal tissue; details: in vivo
[32] = tested on: Liver; experiment: Biodistribution in corticosterone pretreated Wistar rat liver at 20 MBq, iv after 60 mins; format: ADME, organism-based; details: in vivo, 1 h
[33] = tested on: Femur; experiment: Biodistribution in Wistar rat femur at 20 MBq, iv after 5 mins; format: ADME, organism-based; details: in vivo
[34] = tested on: Harderian gland; experiment: Biodistribution in corticosterone pretreated Wistar rat harderian gland at 20 MBq, iv after 60 mins; format: ADME, organism-based; details: in vivo, 1 h
[35] = tested on: Spleen; experiment: Biodistribution in corticosterone pretreated Wistar rat spleen at 20 MBq, iv after 60 mins; format: ADME, organism-based; details: in vivo, 1 h
[36] = tested on: Heart; experiment: Biodistribution in corticosterone pretreated Wistar rat heart at 20 MBq, iv after 5 mins; format: ADME, organism-based; details: in vivo
[37] = tested on: Blood; experiment: Biodistribution in Wistar rat blood at 20 MBq, iv after 60 mins; format: ADME, organism-based; details: in vivo, 1 h
[38] = tested on: Pancreas; experiment: Biodistribution in corticosterone pretreated Wistar rat pancreas at 20 MBq, iv after 5 mins; format: ADME, organism-based; details: in vivo
[39] = tested on: Rattus norvegicus; experiment: Biodistribution in Wistar rat testis at 20 MBq, iv after 5 mins; format: ADME, organism-based; details: in vivo
[40] = tested on: Rattus norvegicus; experiment: Biodistribution in Wistar rat brown fat at 20 MBq, iv after 5 mins; format: ADME, organism-based, Brown adipose tissue; details: in vivo

Question: `C=CCC1Oc2cccc(O[11CH3])c2-c2ccc3c(c21)C(C)=CC(C)(C)N3` (stereo not given) was tested. Which Drug uptake [1] did it give?
Answer: 4.4 % ID/g

Question: And the Drug uptake [2]?
Answer: 1.72 % ID/g

Question: And the Drug uptake [3]?
Answer: 1.44 % ID/g

Question: And the Drug uptake [4]?
Answer: 1.48 % ID/g

Question: And the Drug uptake [5]?
Answer: 1.6 % ID/g

Question: And the Drug uptake [6]?
Answer: 1.46 % ID/g

Question: What about the Drug uptake [7] of the same molecule?
Answer: 2.06 % ID/g

Question: What about the Drug uptake [8] of the same molecule?
Answer: 2.54 % ID/g

Question: What about the Drug uptake [9] of the same molecule?
Answer: 0.6 % ID/g

Question: What about the Drug uptake [10] of the same molecule?
Answer: 0.88 % ID/g

Question: What about the Drug uptake [11] of the same molecule?
Answer: 1.65 % ID/g

Question: What about the Drug uptake [12] of the same molecule?
Answer: 1.19 % ID/g

Question: And the Drug uptake [13]?
Answer: 0.74 % ID/g

Question: What about the Drug uptake [14] of the same molecule?
Answer: 0.61 % ID/g

Question: What about the Drug uptake [15] of the same molecule?
Answer: 7.44 % ID/g

Question: What about the Drug uptake [16] of the same molecule?
Answer: 2.49 % ID/g

Question: And the Drug uptake [17]?
Answer: 1.51 % ID/g

Question: What about the Drug uptake [18] of the same molecule?
Answer: 1.21 % ID/g

Question: What about the Drug uptake [19] of the same molecule?
Answer: 3.8 % ID/g

Question: What about the Drug uptake [20] of the same molecule?
Answer: 1.43 % ID/g

Question: And the Drug uptake [21]?
Answer: 1.7 % ID/g

Question: And the Drug uptake [22]?
Answer: 0.52 % ID/g

Question: And the Drug uptake [23]?
Answer: 0.43 % ID/g

Question: What about the Drug uptake [24] of the same molecule?
Answer: 0.94 % ID/g

Question: What about the Drug uptake [25] of the same molecule?
Answer: 0.75 % ID/g

Question: And the Drug uptake [26]?
Answer: 1.11 % ID/g

Question: What about the Drug uptake [27] of the same molecule?
Answer: 1.57 % ID/g

Question: And the Drug uptake [28]?
Answer: 1.77 % ID/g

Question: What about the Drug uptake [29] of the same molecule?
Answer: 0.61 % ID/g

Question: What about the Drug uptake [30] of the same molecule?
Answer: 0.53 % ID/g

Question: And the Drug uptake [31]?
Answer: 7.63 % ID/g

Question: What about the Drug uptake [32] of the same molecule?
Answer: 3.84 % ID/g

Question: What about the Drug uptake [33] of the same molecule?
Answer: 0.9 % ID/g

Question: What about the Drug uptake [34] of the same molecule?
Answer: 2.87 % ID/g

Question: And the Drug uptake [35]?
Answer: 0.91 % ID/g

Question: And the Drug uptake [36]?
Answer: 1.91 % ID/g

Question: What about the Drug uptake [37] of the same molecule?
Answer: 0.6 % ID/g

Question: And the Drug uptake [38]?
Answer: 2.81 % ID/g

Question: What about the Drug uptake [39] of the same molecule?
Answer: 0.47 % ID/g

Question: What about the Drug uptake [40] of the same molecule?
Answer: 5.22 % ID/g
